From patent publication US8101768B2, “Cyclic amine compound and pest control agent” (Nippon Soda Co., Ltd., priority 2004, dated 2012)

Columns and labels:
Assay type in all cases: in vivo
[1] = tested on: organophosphorous agent resistant two-spotted spider mites; assay: Effect on Two-spotted Spider Mite (spray on kidney bean leaves); details: 125 ppm, water dispersible powder of Formulation Example 1 sprayed, 17 female adults, 25° C., 65% humidity, 3 days
Outline: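 Mortality of adult females counted after 3 days at 25 °C and 65% humidity, following a 125 ppm spray of wettable-powder dilution onto infested 7–10-day-old bean seedlings (17 mites per leaf). Two replicates.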

[2] = tested on: army worms; assay: Effect on Army Worm (artificial feed test); details: 10 μg of compound on 0.2 ml artificial feed, second instar, 25° C., 5 days
Protocol: Test feeds were prepared by filling plastic test tubes (capacity of 1.4 ml) with 0.2 ml of a commercial artificial feed (Insecta LFS, manufactured by Nosan Corporation). Each of 1% chemical compound solutions was prepared by using DMSO (containing 0.5% tween 20), which was then dropped into the surface of the feed in amount of 10 μg of the respective chemical compounds. 2 army worms, each of which was in the second instar, were inoculated into each of the test tubes, which were then sealed by their plastic caps. After they were left at 25° C. for 5 days, the rate of killed army worms and their feed consumptions were investigated. The test was repeated twice. […] 1-8, 1-9, 1-13, 1-15, 1-17, 1-22, 1-23, 1-27, 1-39, 1-45, 1-46, 1-59, 1-69, 1-72, 1-74, 1-75, 1-79, 1-80, 1-83, 1-95, 1-97, 1-981-100, 1-105, 1-108, 1-114, 1-133, 1-140, 1-147, 1-153, 1-165, 1-166, 1-181, 1-182, 1-183, 1-184, 1-187, 1-189, 1-190,

[3] = tested on: acaricide resistant citrus red mites; assay: Effect on Citrus Red Mite (spray on mandarin orange leaves); details: 31 ppm, emulsifiable concentrate of Formulation Example 2 sprayed, 10 female adults, 25° C., 65% humidity
Protocol: Effect on Citrus Red Mite
10 female adults of acaricide resistant citrus red mites were inoculated onto leaves of a mandarin orange placed on dishes, onto which each of liquid agents, diluted with water so as to adjust the respective concentration of the chemical compounds to 31 ppm according to the formulation of the emulsifiable concentrate shown in the aforementioned Formulation Example 2, was sprayed by using a rotating sparge tower. After they were left in a thermostatic chamber at 25° C. in 65% humidity for 3 days, and were then removed from the dishes, eggs laid for 3 days were investigated whether they could grow to adults or not on the eleventh day. As the results, the following chemical compounds killed 100% of the adults. 1-13, 1-15, 1-22, 1-27, 1-45, 1-54, 1-59, 1-63, 1-66, 1-69, 1-71, 1-72, 1-75, 1-80, 1-88, 1-89, 1-92, 1-93, 1-94, 1-97, 1-98, 1-100, 1-102, 1-105, 1-108, 1-133, 1-136, 1-142, 1-153, 1-181, 1-183, 1-186, 1-187, 1-188, 1-189, 1-190, 1-191,

Structure (SMILES)	rate of killed adults [1]	killed 100% of the army worms, or inhibited their feed consumptions, in comparison with a solvent control area, to 10% or less (effective) [2]	killed ... of the adults (eggs laid for 3 days investigated whether they could grow to adults on the eleventh day) [3]
FC(F)(F)c1ccc(N2CCC(Oc3c(Cl)cc(C(F)(F)F)cc3Br)CC2)nc1 [1-17]	100%	effective	
FC(F)(F)c1ccc(N2CCC(Oc3ccc(C(F)(F)F)cc3OCCCl)CC2)nc1 [1-140]	100%	effective	
COCOC(C)c1cc(C(F)(F)F)ccc1OC1CCN(c2ccc(C(F)(F)F)cn2)CC1 (stereo not drawn) [1-184]	100%	effective	
Fc1ccc(OC2CCN(c3ccc(C(F)(F)F)cn3)CC2)cc1C(F)(F)F [1-9]	100%	effective	
CCCOc1cc(C(F)(F)F)ccc1OC1CCN(c2ccc(C(F)(F)F)cn2)CC1(C)C(=O)OCC (stereo not drawn) [1-95]		effective	
O=[N+]([O-])c1ccc(OC2CCN(c3ccc(C(F)(F)F)cn3)CC2)cc1C(F)(F)F [1-39, 4-[4-nitro-3-(trifluoromethyl)phenoxy]-1-[5-(trifluoromethyl)-2-pyridyl]-piperidine]		effective	
FC(F)(F)c1ccc(N2CCC(Oc3ccc(Br)c(C(F)(F)F)c3)CC2)nc1 [1-23, 4-[4-bromo-3-(trifluoromethyl)phenoxy]-1-[5-(trifluoromethyl)-2-pyridyl]-piperidine]	100%	effective	
C=CCc1cc(C(F)(F)F)ccc1OC1CCN(c2ccc(C(F)(F)F)cn2)CC1 [1-74]	100%	effective	
CCOC(=O)c1cc(C(F)(F)F)ccc1OC1C2CCC1CN(c1ccc(C(F)(F)F)cn1)C2 (stereo not drawn) [5-233]	100%		100%
FC(F)(F)c1ccc(OC2CCN(c3ncc(C(F)(F)F)cc3Cl)CC2)cc1 [1-83]		effective	
FC(F)(F)c1ccc(N2CC3CCC(C2)C3Oc2ccc(C(F)(F)F)cc2C2C=CCO2)nc1 (stereo not drawn) [5-236]	100%		100%
C=CCOc1cc(C(F)(F)F)ccc1OC1CCN(c2ccc(C(F)(F)F)cn2)CC1 [1-142]	100%		100%
FC(F)(F)c1cnc(N2CCC(Oc3c(Cl)cc(OCC=C(Cl)Cl)c(Cl)c3Cl)CC2)c(Cl)c1 [1-165]		effective	
FC(F)(F)Sc1ccc(OC2CCN(c3ccc(C(F)(F)F)cn3)CC2)cc1 [1-147]	100%	effective	
FC(F)(F)c1ccc(N2CCC(Oc3c(Cl)cc(OCC=C(Cl)Cl)c(Cl)c3Cl)CC2)nc1 [1-166]		effective	
CCCOc1cc(C(F)(F)F)ccc1OC1CCN(c2ccc(C(F)(F)F)cn2)CC1 [1-92]	100%		100%
CC=CCOc1cc(C(F)(F)F)ccc1OC1C2CCC1CN(c1ccc(C(F)(F)F)cn1)C2 (mixture of isomers) [5-175]	100%		100%
CC(C)COc1cc(C(F)(F)F)ccc1OC1CCN(c2ccc(C(F)(F)F)cn2)CC1 [1-102]	100%		100%
FC(F)(F)c1ccc(N2CCC(Oc3cc(C(F)(F)F)cc(C(F)(F)F)c3)CC2)nc1 [1-79]	100%	effective	

Structure (SMILES)	rate of killed adults [1]	killed 100% of the army worms, or inhibited their feed consumptions, in comparison with a solvent control area, to 10% or less (effective) [2]	killed ... of the adults (eggs laid for 3 days investigated whether they could grow to adults on the eleventh day) [3]
COCOC(C)c1cc(C(F)(F)F)ccc1O[C@@H]1[C@@H]2CC[C@H]1CN(c1ccc(C(F)(F)F)cn1)C2 (stereo partly drawn) [5-73]	100%		100%
CCCOc1cc(C(F)(F)F)ccc1OC1CCN(c2ccc(C(F)(F)F)cn2)C(C)C1 (stereo not drawn) [1-93, 2-methyl-4-[2-propoxy-4-(trifluoromethyl)phenoxy]-1-[5-(trifluoromethyl)-2-pyridyl]piperidine]	100%		100%
CC(C#N)OCc1cc(C(F)(F)F)ccc1OC1C2CCC1CN(c1ccc(C(F)(F)F)cn1)C2 (stereo not drawn) [5-230]	100%		100%
CCCNc1cc(C(F)(F)F)ccc1OC1C2CCC1CN(c1ccc(C(F)(F)F)cn1)C2 (stereo not drawn) [5-190]	100%		100%
CCOCOCc1cc(C(F)(F)F)ccc1OC1CCN(c2ccc(C(F)(F)F)cn2)CC1 [1-71]	100%		100%
FC(F)(F)c1ccc(N2CC3CCC(C2)C3Oc2ccc(C(F)(F)F)cc2C2CCCO2)nc1 (stereo not drawn) [5-237]	100%		100%
CC(C)(C)COc1cc(C(F)(F)F)ccc1OC1CCN(c2ccc(C(F)(F)F)cn2)CC1 [1-114]	100%	effective	
COCc1cc(C(F)(F)F)ccc1OC1CCN(c2ccc(C(F)(F)F)cn2)CC1 [1-63]	100%		100%
CCCOc1cc(C(F)(F)F)ccc1OC1C2CCCC1CN(c1ccc(C(F)(F)F)cn1)C2 (stereo not drawn) [7-82, 90-[2-propoxy-4-(trifluoromethyl)phenoxy]-3-[5-(trifluoromethyl)-2-pyridyl]-3-azabicyclo[3.3.1]nonane]	100%		100%
O=S(=O)(Oc1cc(C(F)(F)F)ccc1OC1C2CCC1CN(c1ccc(C(F)(F)F)cn1)C2)C(F)(F)F (stereo not drawn) [5-234]	100%		100%
COC(=O)c1cc(C(F)(F)F)ccc1O[C@@H]1[C@@H]2CC[C@H]1CN(c1ccc(C(F)(F)F)cn1)C2 [5-243]	100%		100%
CCCCOc1cc(C(F)(F)F)ccc1OC1C2CCC1CN(c1ccc(C(F)(F)F)cn1)C2 (stereo not drawn) [5-224]	100%		100%
COC(C)OCc1cc(C(F)(F)F)ccc1OC1CCN(c2ccc(C(F)(F)F)cn2)CC1C (stereo not drawn) [1-188]	100%		100%
CCCOc1cc(C(F)(F)F)ccc1OC1CCN(c2ccc(C)cn2)CC1 [1-94]	100%		100%
C=C(C)COc1cc(C(F)(F)F)ccc1OC1C2CCC1CN(c1ccc(C(F)(F)F)cn1)C2 (stereo not drawn) [5-174]	100%		100%
CC(C)OC(=O)c1cc(C(F)(F)F)ccc1O[C@@H]1[C@@H]2CC[C@H]1CN(c1ccc(C(F)(F)F)cn1)C2 [5-245]	100%		100%
COc1cc(C(F)(F)F)ccc1OC1CCN(c2ccc(C(F)(F)F)cn2)CC1 [1-88]	100%		100%
FC(F)(F)c1ccc(N2C[C@H]3CC[C@@H](C2)[C@@H]3Oc2ccc(C(F)(F)F)cc2Br)nc1 [5-22]	100%		100%
